Patent US5985541A, “Peptide capable of being recognized by antibodies recognizing the C33 antigen of hepatitis C virus” (Bio Merieux, priority 1995, dated 1999)
Where no end group is shown, it is not given here.

What was measured:
Format in all cases: binding
[1] = tested on: anti-C33 70-13 or 12A1H2 monoclonal antibodies; assay: Spotscan immunoreactivity of overlapping octapeptides with anti-C33 monoclonal antibodies; conditions: monoclonal antibodies 100 nM; β-galactosidase anti-mouse conjugate 1/200; estimated qualitatively
Procedure: The synthesis was conducted on an activated cellulose membrane according to the technique developed by Berg et al. (1989, J. Ann. Chem. Soc., 111, 8024-8026) and available from Cambridge Research Biochemicals (trade name Spotscan). This technique allows simultaneous synthesis of a large number of peptides. The escerified amino acids used in the synthesis have an α-amino group protected by an FMOC group (Nova Biochem) and side groups protected by protective groups such as, for example, trityl, t-butyl ester, or t-butyl ether. The esterified amino acids are dissolved in N-methylpyrrolidone (NMP) at the concentration of […] and 0.9 μl are deposited at the attachment sites of bromphenol blue. After 15 minutes incubation, amino acids are deposited once again, followed by a further incubation of 15 minutes. If the coupling between the two amino acids is done correctly, a color change is observed (transition from blue to yellow-green). After three washings in DMF, an acetylation step is performed by acetic anhydride. Then the terminal amino groups of the peptides undergoing synthesis are deprotected by piperidine in a 20% solution in DMF. The deposition sites are re-stained by a 1% bromophenol blue solution in DMF, washed three times with methanol, and dried. This sequence of operations constitutes one amino acid addition cycle, and this cycle is repeated until synthesis is complete. When all the amino acids have been added, the NH2 terminal group of the last amino acid is deprotected by piperidine in a 20% solution in DMF and acetylated with acetic anhydride. The protective groups of the side chain are removed by a mixture of dichloromethane/trifluoroacetic acid/triisobutylsilane (5 ml/5 ml/250 μl). The immunoreactivity of the peptides thus synthesized can then be tested, for example, by ELISA.
After synthesis of the various octapeptides, the cellulose membrane is rinsed with methanol, washed in TBS (0.1 M Tris, pH 7.2) then incubated overnight at room temperature in saturation buffer (available from Cambridge Research Biochemicals). After several washings with TBS-T (0.1 M Tris, pH 7.2-0.05% Tween 20), the membrane is placed in contact with a solution of anti-C33 70-13 or 12A1H2 monoclonal antibodies (100 nM), and incubated for four hours at room temperature. After three washings with TBS-T, the anti-mouse-immunoglobulin conjugate labeled with β-galactosidase (available from Cambridge Research Biochemicals) is added to a 1/200 dilution and these materials are incubated for two hours at room temperature. After several washings of the membrane with 0.05% TBS-Tween and PBS, the immunoreactivity at the various spots is developed by adding a solution of substrate (5-bromo-4-chloro-3-indoyl-β-D-galactopyranoside in PBS containing magnesium chloride and potassium ferricyanide) and incubating for ten to forty minutes. The color of the spots is estimated qualitatively on a numerical scale from 0 to 5.

[2] = tested on: mixture of human sera from patients infected by HCV (anti-C33 antibodies); assay: Spotscan immunoreactivity of overlapping octapeptides with mixture of human sera; conditions: 1/50 dilution of human sera mixture; anti-human-immunoglobulin conjugate 1/200
[3] = tested on: anti-C33 antibodies; assay: Spotscan point substitution tests on the Lys-Phe-Ser-Ser-Arg-Leu-Gly-Ala peptide; conditions: point or double substitution of amino acids
Procedure: In order to determine the degree to which the nature of the various amino acids constituting the Lys-Phe-Ser-Ser-Arg-Leu-Gly-Ala peptide can vary without reducing the antigenic properties of said peptide with respect to anti-C33 antibodies, point substitution tests were performed.
The peptides were synthesized by the method described in the previous example, known as "Spotscan", substituting each amino acid on the peptide at a given position by the other nineteen. These peptides were then tested as described above. The size of each residue can thus be examined and the peptide grouping the best amino acids in each position can then be synthesized.

Row | Sequence | color of the spots (immunoreactivity) [1] | color of the spots (immunoreactivity) [2] | response compared with the Lys-Phe-Ser-Ser-Arg-Leu-Gly-Ala peptide [3]
1 | DGAKFSSR | first color | – | –
2 | FSSRLGAA | maximum | maximum color | –
3 | KASSYLGA [SEQ ID NO: 36] | – | – | advantageously
4 | KFSSGLGA [SEQ ID NO: 32] | – | – | better response
5 | KFSSPLGA [SEQ ID NO: 33] | – | – | better response
6 | KFSSRLGA | maximum | – | –
7 | KFSSYLGA [SEQ ID NO: 34] | – | – | better response
8 | KHSSYLGA [SEQ ID NO: 37] | – | – | advantageously
9 | KYSSRLGA [SEQ ID NO: 35] | – | – | equivalent response
10 | RLGAAGAE | disappears completely | – | –
11 | SRLGAAGA | very slight coloration | – | –
